Results from PubChem BioAssay AID248 (DTP/NCI, 2004).
Values joined by “and” are separate entries in the source; they are usually repeats but may differ in a detail not shown here. Equal entries are not always repeated. Toxic doses and inconclusive results are not listed. Cut-off read from the data, not from the text of the source: active = T/C of 150% or more; inactive = T/C below 125%.

System: L1210 leukemia ip in BDF1 mice, survival T/C
Experiment: NCI In Vivo Anticancer Drug Screen. Data for tumor model L1210 Leukemia (intraperitoneal) in B6D2F1 (BDF1) mice
Conditions: endpoint: mean survival time, higher = longer survival
Procedure, shortened: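 Transplanted-tumor mice were given test agent; controls received vehicle only. Survival readings from the two groups were divided (treated over control).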

[1] = dose: 100.0 mg/kg/injection, schedule: Q01DX009 (ip), vehicle: Klucel (hydroxypropylcellulose) (HPC)
[2] = dose: 200.0 mg/kg/injection, schedule: Q01DX009 (ip), vehicle: Klucel (hydroxypropylcellulose) (HPC)
[3] = dose: 400.0 mg/kg/injection, schedule: Q01DX009 (ip), vehicle: Klucel (hydroxypropylcellulose) (HPC)
[4] = dose: 100.0 mg/kg/injection, schedule: Q04DX002 (ip), vehicle: saline with Tween-80
[5] = dose: 200.0 mg/kg/injection, schedule: Q04DX002 (ip), vehicle: saline with Tween-80
[6] = dose: 400.0 mg/kg/injection, schedule: Q04DX002 (ip), vehicle: saline with Tween-80
[7] = dose: 6.25 mg/kg/injection, schedule: Q04DX003 (ip), vehicle: saline with Tween-80
[8] = dose: 12.5 mg/kg/injection, schedule: Q04DX003 (ip), vehicle: saline with Tween-80
[9] = dose: 100.0 mg/kg/injection, schedule: Q04DX003 (ip), vehicle: saline with Tween-80
[10] = dose: 100.0 mg/kg/injection, schedule: Q04DX003 (ip), vehicle: Klucel (hydroxypropylcellulose) (HPC)
[11] = dose: 200.0 mg/kg/injection, schedule: Q04DX003 (ip), vehicle: Klucel (hydroxypropylcellulose) (HPC)
[12] = dose: 400.0 mg/kg/injection, schedule: Q04DX003 (ip), vehicle: Klucel (hydroxypropylcellulose) (HPC)
[13] = dose: 100.0 mg/kg/injection, schedule: Q01DX009 (ip), vehicle: saline with Tween-80
[14] = dose: 200.0 mg/kg/injection, schedule: Q01DX009 (ip), vehicle: saline with Tween-80
[15] = dose: 100.0 mg/kg/injection, schedule: Q01DX001 (ip), vehicle: saline
[16] = dose: 200.0 mg/kg/injection, schedule: Q01DX001 (ip), vehicle: saline
[17] = dose: 400.0 mg/kg/injection, schedule: Q01DX001 (ip), vehicle: saline
[18] = dose: 100.0 mg/kg/injection, schedule: Q01DX001 (ip), vehicle: saline with Tween-80
[19] = dose: 200.0 mg/kg/injection, schedule: Q01DX001 (ip), vehicle: saline with Tween-80

Measured: T/C

O=C(O)c1cccc(Cl)c1
inactive: [1] 100 % of control | [2] 100 % of control | [3] 86 % of control

OCC1OC(OC2C(CO)OCC(O)C2O)C(O)C(O)C1O (centres undefined)
inactive: [4] 100 % of control | [5] 100 % of control | [6] 88 % of control

Cc1c(C(=O)O)c(-c2ccc([N+](=O)[O-])cc2)c(C=O)n1-c1ccccc1
inactive: dose: 100.0 mg/kg/injection, schedule: Q04DX002 (ip), vehicle: Klucel (hydroxypropylcellulose) (HPC) 91 % of control | dose: 200.0 mg/kg/injection, schedule: Q04DX002 (ip), vehicle: Klucel (hydroxypropylcellulose) (HPC) 97 % of control | dose: 400.0 mg/kg/injection, schedule: Q04DX002 (ip), vehicle: Klucel (hydroxypropylcellulose) (HPC) 102 % of control

CC(=O)Nc1ccc(N=NN(C)C)cc1
inactive: dose: 1.56 mg/kg/injection, schedule: Q04DX003 (ip), vehicle: saline with Tween-80 97 % of control and 101 % of control | dose: 3.12 mg/kg/injection, schedule: Q01DX001 (ip), vehicle: saline with Tween-80 101 % of control | dose: 3.12 mg/kg/injection, schedule: Q04DX003 (ip), vehicle: saline with Tween-80 97 % of control and 98 % of control | dose: 6.25 mg/kg/injection, schedule: Q01DX001 (ip), vehicle: saline with Tween-80 107 % of control | [7] 101 % of control and 104 % of control | dose: 12.5 mg/kg/injection, schedule: Q01DX001 (ip), vehicle: saline with Tween-80 108 % of control | [8] 100 % of control and 102 % of control | dose: 25.0 mg/kg/injection, schedule: Q01DX001 (ip), vehicle: saline with Tween-80 113 % of control

Cc1cnccc1N=Nc1ccc(N(C)C)cc1
inactive: [9] 104 % of control | dose: 200.0 mg/kg/injection, schedule: Q04DX003 (ip), vehicle: saline with Tween-80 104 % of control | dose: 400.0 mg/kg/injection, schedule: Q04DX003 (ip), vehicle: saline with Tween-80 101 % of control

CCSC(C(OC(C)=O)C(OC(C)=O)C(OC(C)=O)C(COC(C)=O)OC(C)=O)n1cnc2c(=S)nc[nH]c21 (centres undefined)
inactive: dose: 100.0 mg/kg/injection, schedule: Q04DX003 (ip), vehicle: saline sonified 102 % of control | dose: 200.0 mg/kg/injection, schedule: Q04DX003 (ip), vehicle: saline sonified 96 % of control | dose: 400.0 mg/kg/injection, schedule: Q04DX003 (ip), vehicle: saline sonified 91 % of control

CC(=O)C1C=NCC(C)(C)N=CC(C(C)=O)C(C)=NCCCN=C1C.[Ni] (centres undefined)
inactive: dose: 12.5 mg/kg/injection, schedule: Q01DX009 (ip), vehicle: Klucel (hydroxypropylcellulose) (HPC) 95 % of control | dose: 12.5 mg/kg/injection, schedule: Q04DX003 (ip), vehicle: Klucel (hydroxypropylcellulose) (HPC) 96 % of control | dose: 25.0 mg/kg/injection, schedule: Q01DX009 (ip), vehicle: Klucel (hydroxypropylcellulose) (HPC) 100 % of control | dose: 25.0 mg/kg/injection, schedule: Q04DX003 (ip), vehicle: Klucel (hydroxypropylcellulose) (HPC) 91 % of control | dose: 50.0 mg/kg/injection, schedule: Q01DX009 (ip), vehicle: Klucel (hydroxypropylcellulose) (HPC) 97 % of control | dose: 50.0 mg/kg/injection, schedule: Q04DX003 (ip), vehicle: Klucel (hydroxypropylcellulose) (HPC) 102 % of control

CCN1CCN2C(=O)OCC2C1 (centres undefined)
inactive: dose: 100.0 mg/kg/injection, schedule: Q04DX003 (sc), vehicle: olive oil, sesame oil, peanut oil 94 % of control | dose: 200.0 mg/kg/injection, schedule: Q04DX003 (sc), vehicle: olive oil, sesame oil, peanut oil 97 % of control | dose: 400.0 mg/kg/injection, schedule: Q04DX003 (sc), vehicle: olive oil, sesame oil, peanut oil 92 % of control

Nc1ccc2nc3ccc(N)cc3[n+](-c3ccccc3)c2c1
inactive: dose: 5.0 mg/kg/injection, schedule: Q01DX001 (ip), vehicle: other 111 % of control | dose: 10.0 mg/kg/injection, schedule: Q01DX001 (ip), vehicle: other 108 % of control | dose: 18.0 mg/kg/injection, schedule: Q01DX001 (ip), vehicle: other 101 % of control and 103 % of control | dose: 20.0 mg/kg/injection, schedule: Q01DX001 (ip), vehicle: other 108 % of control | dose: 27.0 mg/kg/injection, schedule: Q01DX001 (ip), vehicle: other 106 % of control and 118 % of control | dose: 40.0 mg/kg/injection, schedule: Q01DX001 (ip), vehicle: other 110 % of control and 114 % of control | dose: 60.0 mg/kg/injection, schedule: Q01DX001 (ip), vehicle: other 104 % of control

CC(=O)C(CCC#N)(CCC#N)C(=O)Nc1ccccc1
inactive: [10] 97 % of control | [11] 98 % of control | [12] 95 % of control

CCc1cccc(CC)c1NC(=O)/C=C/C(=O)O
inactive: [4] 93 % of control | [5] 100 % of control | [6] 96 % of control

O=C(N/C=C/NC(=O)Oc1c(I)cc(I)cc1I)Oc1c(I)cc(I)cc1I
inactive: [1] 92 % of control | [2] 100 % of control | [3] 102 % of control

CS(=O)(=O)OCCN(CCOS(C)(=O)=O)c1cccc([N+](=O)[O-])c1
inactive: dose: 1.0 mg/kg/injection, schedule: Q01DX001 (ip), vehicle: saline 101 % of control | dose: 2.0 mg/kg/injection, schedule: Q01DX001 (ip), vehicle: saline 101 % of control | dose: 4.0 mg/kg/injection, schedule: Q01DX001 (ip), vehicle: saline 101 % of control | dose: 8.0 mg/kg/injection, schedule: Q01DX001 (ip), vehicle: saline 102 % of control | dose: 152.0 mg/kg/injection, schedule: Q01DX001 (ip), vehicle: saline 113 % of control | dose: 228.0 mg/kg/injection, schedule: Q01DX015 (ip), vehicle: saline 118 % of control | dose: 342.0 mg/kg/injection, schedule: Q01DX001 (ip), vehicle: saline 95 % of control | dose: 342.0 mg/kg/injection, schedule: Q01DX015 (ip), vehicle: saline 92 % of control | dose: 1024.0 mg/kg/injection, schedule: Q01DX001 (ip), vehicle: saline 102 % of control

CCCC(=O)Nc1ccc([N+](=O)[O-])cc1OC
inactive: [13] 105 % of control | [14] 94 % of control | dose: 400.0 mg/kg/injection, schedule: Q01DX009 (ip), vehicle: saline with Tween-80 94 % of control

OCC(O)CCBr (centres undefined)
inactive: [15] 100 % of control | dose: 100.0 mg/kg/injection, schedule: Q01DX009 (ip), vehicle: saline 107 % of control | [16] 105 % of control | dose: 200.0 mg/kg/injection, schedule: Q01DX009 (ip), vehicle: saline 115 % of control | [17] 108 % of control

O=C1C=C(NC(Cc2cnc[nH]2)C(=O)O)c2ccccc2C1=O (centres undefined)
inactive: dose: 50.0 mg/kg/injection, schedule: Q01DX009 (ip), vehicle: saline with Tween-80 97 % of control | [13] 100 % of control | [14] 93 % of control

O=C(Nc1ccc(S(=O)(=O)NC2CCCCC2)cc1)Oc1ccccc1C(=O)O
inactive: [15] 100 % of control | [16] 91 % of control | [17] 100 % of control

O=C(O)CCCc1ccc2sc3ccccc3c2c1
inactive: [18] 100 % of control | [19] 101 % of control

CCCCCCCCCCCC(=O)N1CCCCC1
inactive: [18] 101 % of control | [19] 97 % of control | dose: 400.0 mg/kg/injection, schedule: Q01DX001 (ip), vehicle: saline with Tween-80 89 % of control

Cc1ccc(C(C)C)c(Oc2cc(C)ccc2C(C)C)c1
inactive: [1] 98 % of control | [10] 97 % of control | [2] 102 % of control | [11] 93 % of control | [3] 108 % of control | [12] 93 % of control

O=C(/C=C/c1ccc(Cl)c(Cl)c1)c1ccc(Cl)cc1
inactive: dose: 6.25 mg/kg/injection, schedule: Q01DX009 (ip), vehicle: saline with Tween-80 97 % of control | [7] 110 % of control | dose: 12.5 mg/kg/injection, schedule: Q01DX009 (ip), vehicle: saline with Tween-80 97 % of control | [8] 96 % of control | dose: 25.0 mg/kg/injection, schedule: Q01DX009 (ip), vehicle: saline with Tween-80 95 % of control | dose: 25.0 mg/kg/injection, schedule: Q04DX003 (ip), vehicle: saline with Tween-80 94 % of control and 89 % of control | [9] 87 % of control and 88 % of control
